Data on three compounds can be found in patent publication US10238688B2, “Combination therapies for bladder cancer” (GENEDIA BIOTECH CO. LTD., priority 2015, dated 2019).

For one assay, the system named is 5637. The assay is described as follows: MTT cell survival / IC50, 5637 cells. Particulars: 5637; for Single drug 4X Cell Survival (%): ng/ml: EH 1000, Ci 6000, Mi 800, Pi 160, Pa 640, Ge 20, EH/Ci/Mi regimen; for Cell survival (%): Table S3, ng/ml: Pi 40, Pa 160, EH 250, Ci 1500, Mi 200, 1=Ci/Mi, 2=EH/Ci/Mi, 3=Pa/Ci/Mi, 4=Pi/Ci/Mi. It is filed as cell-based, human. The method, then: (§1) The clinical grade of the chemotherapeutics (NCI Dictionary of Cancer Terms) was provided by the First Affiliated Hospital of Harbin Medical University: Pirarubicin (Pi, Wanle, Shenzhen), Paclitaxel (Pa, Taiji, Sichuan), Adriamycin (Ad, Pfizer, Jiangsu), Epirubicin Hydrochloride (EH, Haizheng, Zhejiang), Hydroxycamptothecin (Hy, Lishizhen, Hubei), Cisplatin (Ci, Haosen, Jiangsu), Gemcitabine (Ge, Haosen, Jiangsu) and Mitomycin (Mi, Haizheng, Zhejiang). The drug induced cell death was determined by a thiazolyl […] (MTT, 490 nm reading) based cell proliferation assay in the cultured cells following treatment by various concentrations of drugs for 72 hours. The relative chemoresistance to each drug of all cell lines was calculated with the lowest IC50 as a reference. The overall chemoresistance of each cell line was described as “chemoresistance index”, the numerator of the total relative IC50 to all the drugs over the number of drugs to rank the overall resistance state of each cell line to the six chemotherapeutics collectively.
(§2) The relative IC50 (fold) of each drug of all nine cell lines was normalized to the lowest IC50 in the most sensitive cell line (FIG. 2G), to describe the single drug resistance of cell lines. The overall chemoresistance of each cell line, a “chemoresistance index” (the numerator of the total relative IC50 over the number of drugs) (FIG. 2G) were calculated to rank the overall resistance state of each cell line to this six chemotherapeutics.
(§3) Twenty six-drug combinations at the indicated doses were initially generated through a random number generator (using MATLAB MathWorks©, Natick, Mass., U.S.) (The upper half of Table 1). The cell survival (% over the not drug control) of treated cells was determined and then used for a calculation of the average cumulative cell survival (%, ACS: the sum of cell survival (%) per combination divided by the number of cell lines tested). ACS<30% was used to separate the effective from the not-effective combinations.

The next assay concerns H-bc. The assay is described as follows: MTT cell survival / IC50, H-bc cells. It is filed as cell-based, human. To be noted: H-bc; for Single drug 4X Cell Survival (%): ng/ml: EH 1000, Ci 6000, Mi 800, Pi 160, Pa 640, Ge 20, EH/Ci/Mi regimen; for Cell survival (%): Table S3, ng/ml: Pi 40, Pa 160, EH 250, Ci 1500, Mi 200, 1=Ci/Mi, 2=EH/Ci/Mi, 3=Pa/Ci/Mi, 4=Pi/Ci/Mi. The method, then: as §1, §2, §3

The subject of the next assay is T24. The experiment in a line: MTT cell survival / IC50, T24 cells. It counts as cell-based, human. To be noted: for Single drug 4X Cell Survival (%): ng/ml: EH 1000, Ci 6000, Mi 800, Pi 160, Pa 640, Ge 20, EH/Ci/Mi regimen; for Cell survival (%): Table S3, ng/ml: Pi 40, Pa 160, EH 250, Ci 1500, Mi 200, 1=Ci/Mi, 2=EH/Ci/Mi, 3=Pa/Ci/Mi, 4=Pi/Ci/Mi. The method, then:
as §1, §2, §3

The test system of the next assay is EJ. The assay is described as follows: MTT cell survival / IC50, EJ cells. It is filed as cell-based, human. Particulars: for Single drug 4X Cell Survival (%): ng/ml: EH 1000, Ci 6000, Mi 800, Pi 160, Pa 640, Ge 20, EH/Ci/Mi regimen; for Cell survival (%): Table S3, ng/ml: Pi 40, Pa 160, EH 250, Ci 1500, Mi 200, 1=Ci/Mi, 2=EH/Ci/Mi, 3=Pa/Ci/Mi, 4=Pi/Ci/Mi. The method, then:
as §1, §2, §3

The test system of the next assay is Biu87. The experiment in a line: MTT cell survival / IC50, Biu87 cells. It is filed as cell-based, human. To be noted: Biu87; for Single drug 4X Cell Survival (%): ng/ml: EH 1000, Ci 6000, Mi 800, Pi 160, Pa 640, Ge 20, EH/Ci/Mi regimen; for Cell survival (%): Table S3, ng/ml: Pi 40, Pa 160, EH 250, Ci 1500, Mi 200, 1=Ci/Mi, 2=EH/Ci/Mi, 3=Pa/Ci/Mi, 4=Pi/Ci/Mi. As for the experimental part:
as §1, §2, §3

Another assay has as its system UM-UC-3. The experiment in a line: MTT cell survival / IC50, UM-UC-3 cells. It counts as cell-based, human. Particulars: UM-UC-3; for Single drug 4X Cell Survival (%): ng/ml: EH 1000, Ci 6000, Mi 800, Pi 160, Pa 640, Ge 20, EH/Ci/Mi regimen; for Cell survival (%): Table S3, ng/ml: Pi 40, Pa 160, EH 250, Ci 1500, Mi 200, 1=Ci/Mi, 2=EH/Ci/Mi, 3=Pa/Ci/Mi, 4=Pi/Ci/Mi. As for the experimental part:
as §1, §2, §3

The test system of a further assay is SCaBER. The experiment in a line: MTT cell survival / IC50, SCaBER squamous carcinoma cells. It counts as cell-based, human. Particulars: for Single drug 4X Cell Survival (%): ng/ml: EH 1000, Ci 6000, Mi 800, Pi 160, Pa 640, Ge 20, EH/Ci/Mi regimen; for Cell survival (%): Table S3, ng/ml: Pi 40, Pa 160, EH 250, Ci 1500, Mi 200, 1=Ci/Mi, 2=EH/Ci/Mi, 3=Pa/Ci/Mi, 4=Pi/Ci/Mi. The method, then:
as §1, §2

The test system of a further assay is SV-HUC-1. It counts as cell-based. To be noted: SV-HUC-1; ng/ml: EH 1000, Ci 6000, Mi 800, Pi 160, Pa 640, Ge 20; EH/Ci/Mi regimen. The method, then:
as §1, §2

Assay [1] concerns bladder cancer cell lines. The experiment in a line: Average cumulative cell survival (ACS) over the panel of cell lines tested. It is filed as cell-based, human. To be noted: for ACS (%) for cancer cells: seven cancer cell lines, ng/ml: EH 1000, Ci 6000, Mi 800, Pi 160, Pa 640, Ge 20, EH/Ci/Mi regimen; for ACS (%): eight cell lines, Table S3, ng/ml: Pi 40, Pa 160, EH 250, Ci 1500, Mi 200, 1=Ci/Mi, 2=EH/Ci/Mi, 3=Pa/Ci/Mi, 4=Pi/Ci/Mi. As for the experimental part: as §1
The “Differential Evolution” algorithm guided experimental optimization (DE) consisted of three iterative operations: generating drug combinations of experimental testing, acquiring the efficacy of the generated drug combinations with biological assays and recalculating further improved drug combinations using a feedback search algorithm. This example first tested twenty drug combinations at randomized doses. These drug combinations were generated from a random integer matrix generator, coded in MATLAB™ language. These twenty drug combinations were then experimentally tested for cancer cell cytotoxicity. The experimental data were then subjected to calculation with a DE algorithm for new drug combinations based on three major mathematical calculations: “Mutation”, “Crossover” and “Selection”. The equations for each step can be found in the main test. The equations for each step are coded in MATLAB™ language.
as §3, with “combinations. Nine of the twenty combinations tested in the 1st round of iteration fell into this category (the lower half of Table 1).” for “combinations.”

The next assay deals with J-82. The experiment in a line: MTT cell survival / IC50, J-82 cells. It is filed as cell-based, human. Particulars: J82; Table S3; ng/ml: Pi 40, Pa 160, EH 250, Ci 1500, Mi 200; 1=Ci/Mi, 2=EH/Ci/Mi, 3=Pa/Ci/Mi, 4=Pi/Ci/Mi. The method, then: as §1, §2, §3

Take `Nc1ccn([C@@H]2O[C@H](CO)[C@@H](O)C2(F)F)c(=O)n1` [Ge, Gemcitabine]: the “Single drug 4X Cell Survival (%)” value stood at 30.06% in the assay with 5637; 83.17% with H-bc; 41.49% with T24; 31.95% in the assay on EJ; 30.82% with Biu87; 46.97% in the assay with UM-UC-3. Besides, the “Single drug 4X Cell Survival (%)” value with SCaBER is on record as 30.87%; in the assay with SV-HUC-1 it was 87.83%. The “ACS (%) for cancer cells” value in [1] worked out at 42.19%.

For the compound `CC(=O)O[C@H]1C(=O)[C@@]2(C)[C@H]([C@H](OC(=O)c3ccccc3)[C@]3(O)C[C@H](OC(=O)[C@H](O)[C@@H](NC(=O)c4ccccc4)c4ccccc4)C(C)=C1C3(C)C)[C@]1(OC(C)=O)CO[C@@H]1C[C@@H]2O` [Pa, Paclitaxel], the “Cell survival (%)” value is reported as 6.45% in the assay with 5637; 13.96% with H-bc; 38.51% in the assay on J-82; 11.55% with T24; 33.05% with EJ; 23.08% in the assay with Biu87. Moreover, the “Cell survival (%)” value turned out to be 40.09% with UM-UC-3 and 57.91% in the assay with SCaBER. Also, the “Single drug 4X Cell Survival (%)” value turned out to be 2.09% with 5637; 12.89% in the assay with H-bc; 17.31% in the assay with T24; 26.38% in the assay on EJ; 17.58% with Biu87; 27.74% in the assay with UM-UC-3. Also, the “Single drug 4X Cell Survival (%)” value with SCaBER is reported as 42.21%; in the assay on SV-HUC-1, 80.17%. Further, in assay [1], the “ACS (%)” value came out at 28.08%. Further, the “ACS (%) for cancer cells” value in assay [1] was 20.89%.

`COc1cccc2c1C(=O)c1c(O)c3c(c(O)c1C2=O)C[C@@](O)(C(=O)CO)CC3O[C@H]1C[C@H](N)[C@H](O[C@@H]2CCCCO2)[C@H](C)O1` (stereo partly drawn) [Pi, (3S)-3-glycoloyl-3,5,12-trihydroxy-10-methoxy-6,11-dioxo-1,2,3,4,6,11-hexahydrotetracen-1-yl 3-amino-2,3,6-trideoxy-4-O-[(2R)-tetrahydro-2H-pyran-2-yl]-α-L-lyxo-hexopyranoside]: the “Cell survival (%)” value stood at 29.22% in the assay on 5637; 86.89% with H-bc; 55.37% in the assay on J-82; 48.33% in the assay on T24; 30.38% in the assay on EJ; 41.67% in the assay on Biu87. Also, the “Cell survival (%)” value with UM-UC-3 turned out to be 65.59%; in the assay on SCaBER it was 30.04%. For the same compound, the “Single drug 4X Cell Survival (%)” value with 5637 turned out to be 3.48%; in the assay with H-bc it was 16.04%; with T24 it was 39.8%; with EJ, 21.25%; with Biu87, 26.98%; in the assay with UM-UC-3, 31.44%. Moreover, the results for the “Single drug 4X Cell Survival (%)” value in the assay with SCaBER and in the assay with SV-HUC-1 were 10.24% and 91.79%, respectively. The “ACS (%)” value in [1] is recorded as 48.44%. Further, in [1], the “ACS (%) for cancer cells” value is 21.32%.
